Reference: US3988364A, “Novel N,N-di-substituted amidines and several acid-addition salts thereof” (Toyo Jozo Kabushiki Kaisha, priority 1972, dated 1976)
Counter-ions that a name gives are not always drawn. Like-named read-outs stand apart in the source and are kept apart here.

Columns and labels:
dogs = assay: Antitussive activity (50%-antitussive effective dose AtD50; efficiency ratio relative to codeine phosphate); format: in vivo; details: for ED50: Canis lupus familiaris, read-out: AtD50 (50%-antitussive effective dose); for Antitussive Ratio: efficiency ratio relative to codeine phosphate
Procedure: route of administration:
From the efficiency rate obtained upon each administration step, 50%-antitussive effective dose (AtD50) was calculated according to the Litchfield-Wilcoxon method. Further, efficiency ratio relative to codeine phosphate was also determined.

in vivo = format: in vivo; details: mouse, in vivo, sc, male ddy mice, subcutaneous injection, Litchfield-Wilcoxon
Text: (§1) test animals: more than five groups, each group
consisting of five male mice of ddy-

male mice of ddy-strain = assay: in vivo; format: in vivo; details: subcutaneous injection, 72 hours, Litchfield-Wilcoxon
Text: as §1
consisting of five male mice of ddy-

persons = details: in words; inhibits long continuous administration; cited from earlier work
[1] = intravenous injection, Litchfield-Wilcoxon method
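For LD50 in this document: animals allocated into more than five groups, with five mice per group.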

SMILES | ED50 (dogs; [1]) [mg/kg] | LD50 at 72 h (in vivo) [mg/kg] | Antitussive Ratio (dogs; intravenous injection) | also measured
CCc1ccccc1N=C(NC1CCCCC1)c1ccc(C)cc1.Cl [Compound 30, N-cyclohexyl, N'-o-ethylphenyl-p-toluamidine hydrochloride] | 4.29 | > 1000 |  | 
Cc1ccccc1N=C(NC1CCCCC1)c1ccccc1C.Cl [Compound 19, N-cyclohexyl, N'-o-tolyl-o-toluamidine hydrochloride] | 5.15 | 650 |  | 
Cc1cc(C)cc(N=C(NC2CCCCC2)c2ccccc2)c1.Cl [Compound 43, N-cyclohexyl, N'-3,5-xylyl-benzamidine hydrochloride] | 3.58 | 660 |  | 
COc1cccc(N=C(NC2CCCCC2)c2ccccc2OC)c1.Cl [Compound 37, N-cyclohexyl, N'-m-methoxyphenyl-o-methoxybenzamidine hydrochloride] | 2.98 | 207 |  | 
COc1ccc(C(=Nc2cccc(C)c2)NC2CCCCC2)cc1.Cl [Compound 40, N-cyclohexyl, N'-m-tolyl-p-anisamidine hydrochloride] | 2.48 | 298 |  | 
Cc1cccc(C)c1N=C(NC1CCCCC1)c1ccccc1.Cl [Compound 45, N-cyclohexyl, N'-2,6-xylyl-benzamidine hydrochloride] | 4.29 | 248 |  | 
COc1ccc(C(=Nc2cccc(OC)c2)NC2CCCCC2)cc1.Cl [Compound 41, N-cyclohexyl, N'-m-methoxyphenyl-p-anisamidine hydrochloride] | 2.98 | 248 |  | 
COc1ccccc1C(=Nc1cccc(C)c1)NC1CCCCC1.Cl [Compound 35, N-cyclohexyl, N'-m-tolyl-o-methoxy-benzamidine hydrochloride] | 5.15 | 144 |  | 
COc1cccc(N=C(NC2CCCCC2)c2ccc(C)cc2)c1.Cl [Compound 33, N-cyclohexyl, N'-m-methoxyphenyl-p-toluamidine hydrochloride] | 5.15 | 600 |  | 
COc1ccccc1C(=Nc1ccccc1C)NC1CCCCC1.Cl [Compound 36, N-cyclohexyl, N'-o-tolyl-o-methoxy-benzamidine hydrochloride] | 4.29 | 100 |  | 
Cc1cc(C)c(NC(=NC2CCCCC2)c2ccccc2)c(C)c1 [Compound 46, N-cyclohexyl, N'-2,4,6-trimethyl-phenyl-benzamidine hydrochloride] | 5.15 | 120 |  | 
COc1ccc(C(=Nc2ccccc2C)NC2CCCCC2)cc1.Cl [Compound 39, N-cyclohexyl, N'-o-tolyl-p-anisamidine hydrochloride] | 3.58 | 172 |  | 
Cc1ccc(C(=Nc2ccccc2C)NC2CCCCC2)cc1.Cl [Compound 29, N-cyclohexyl, N'-o-tolyl-p-toluamidine hydrochloride] | 2.48 | 620 |  | 
Cc1cccc(C(=NC2CCCCC2)Nc2ccccc2)c1 [Compound 8, hydrochloric acid salt of N-cyclohexyl, N'-phenyl-m-toluamidine] |  | 276 | 1.20 | 
Cc1ccccc1NC(=NC1CCCCC1)c1ccccc1 [Compound 1, hydrochloric acid salt of N-cyclohexyl, N'-o-tolyl-benzamidine] |  | 242 | 1.73 | 
Cc1cccc(C(=Nc2ccccc2C)NC2CCCCC2)c1.Cl [Compound 26, N-cyclohexyl, N'-o-tolyl-m-toluamidine hydrochloride] | 2.98 | 740 |  | 
Cc1cccc(N=C(NC2CCCCC2)c2ccccc2C)c1.Cl [Compound 20, N-cyclohexyl, N'-m-tolyl-o-toluamidine hydrochloride] |  | > 100 |  | ED50 (dogs; iv): 4.29 mg/kg
COc1ccc2c(c1OC)C(=O)O[C@@H]2[C@H]1c2c(cc3c(c2OC)OCO3)CCN1C [Compound 16, noscapine hydrochloride, reference compound] |  | 240 | 0.24 | 
Cc1ccc(N=C(NC2CCCCC2)c2ccccc2C)cc1.Cl [Compound 21, N-cyclohexyl, N'-p-tolyl-o-toluamidine hydrochloride] | 3.58 | 160 |  | 
Cc1cccc(NC(=NC2CCCCC2)c2ccccc2)c1C [Compound 4, hydrochloric acid salt of N-cyclohexyl, N'-2,3-xylyl-benzamidine] |  | 117 | 1.21 | 
COc1ccc2c(c1)[C@]13CCCC[C@@H]1[C@H](C2)N(C)CC3 [Compound 15, dextrometrofan hydrobromide, reference compound] |  | 153 | 0.15 | 
COc1cccc(N=C(NC2CCCCC2)c2ccccc2C)c1.O=C(O)C(=O)O [Compound 24, N-cyclohexyl, N'-m-methoxyphenyl-o-toluamidine oxalate] | 5.15 | 891 |  | 

SMILES | ED50 (dogs; [1]) [mg/kg] | LD50 at 72 h (in vivo) [mg/kg] | Antitussive Ratio (dogs; intravenous injection) | also measured
CCc1cccc(N=C(NC2CCCCC2)c2ccccc2)c1.Cl [Compound 44, N-cyclohexyl, N'-m-ethylphenyl-benzamidine hydrochloride] | 4.29 | 900 |  | 
Cc1ccccc1C(=NC1CCCCC1)Nc1cccc(C)c1C [Compound 22, N-cyclohexyl, N'-2,3,-xylyl-o-toluamidine hydrochloride] | 3.58 | > 1000 |  | 
COc1cccc(N=C(NC2CCCCC2)c2ccccc2)c1.Cl [Compound 6, N-cyclohexyl, N'-m-methoxyphenyl-benzamidine hydrochloride] |  | 78 | 1.20 | 
COc1ccccc1C(=Nc1ccccc1)NC1CCCCC1.Cl [Compound 34, N-cyclohexyl, N'-phenyl-o-methoxy-benzamidine hydrochloride] | 3.58 | 100 |  | 
c1ccc(C(=NC2CCCCC2)Nc2cccc3ccccc23)cc1 [Compound 7, N-cyclohexyl, N'-α-naphtyl-benzamidine hydrochloride] |  | > 800 | 0.79 | 
COc1ccc(C(=Nc2ccccc2)NC2CCCCC2)cc1.Cl [Compound 38, N-cyclohexyl, N'-phenyl-p-anisamidine hydrochloride] | 2.98 | 120 |  | 
Cc1ccc(N=C(NC2CCCCC2)c2cccc(C)c2)cc1.Cl [Compound 25, N-cyclohexyl, N'-p-tolyl-m-toluamidine hydrochloride] | 4.29 | 900 |  | 
CCc1ccccc1N=C(NC1CCCCC1)c1ccccc1.Cl [Compound 42, N-cyclohexyl, N'-o-ethylphenyl-benzamidine hydrochloride] | 4.29 | > 1000 |  | 
COc1ccccc1N=C(NC1CCCCC1)c1ccccc1.Cl [Compound 5, N-cyclohexyl, N'-o-methoxyphenyl-benzamidine hydrochloride] |  | 268 | 0.44 | 
Cl.c1ccc(N(CCN2CCCCC2)Cc2ccccn2)cc1 [Compound 11, picoperidamine hydrochloride, reference compound] |  |  | 0.95 | LD50 (male mice of ddy-strain): 144 mg/kg
Cc1ccc(C(=Nc2cccc(C)c2)NC2CCCCC2)cc1.Cl [Compound 32, N-cyclohexyl, N'-m-tolyl-p-toluamidine hydrochloride] | 2.48 | 460 |  | 
Cc1ccccc1C(=NC1CCCCC1)Nc1ccccc1 [Compound 18, N-cyclohexyl, N'-phenol-o-toluamidine hydrochloride] |  | 740 |  | ED50 (dogs; iv): 5.15 mg/kg
COc1ccccc1N=C(NC1CCCCC1)c1cccc(C)c1.Cl [Compound 23, N-cyclohexyl, N'-o-methoxyphenyl-m-toluamidine hydrochloride] |  | 100 |  | ED50 (dogs; iv): 4.29 mg/kg
Cc1ccc(C(=NC2CCCCC2)Nc2ccccc2)cc1 [Compound 10, hydrochloric acid salt of N-cyclohexyl, N'-phenyl-p-toluamidine] |  | 186 | 0.83 | 
Cc1ccc(NC(=NC2CCCCC2)c2ccccc2)cc1 [Compound 2, hydrochloric acid salt of N-cyclohexyl, N'-p-tolyl-benzamidine] |  | 186 | 0.58 | 
CCc1ccc(N=C(NC2CCCCC2)c2ccccc2)cc1.Cl [Compound 3, N-cyclohexyl, N'-p-ethylphenyl-benzamidine hydrochloride] |  | 218 | 0.95 | 
Cc1ccc(C(=NC2CCCCC2)Nc2cccc(C)c2C)cc1 [Compound 31, N-cyclohexyl, N'-2,3,-xylyl-p-toluamidine hydrochloride] | 2.07 | > 1000 |  | 
Cl.Clc1ccc(C(OCCN2CCCCC2)c2ccccc2)cc1 (stereo not drawn) [Compound 13, Hustazol, reference compound] |  |  | 0.52 | LD50 (male mice of ddy-strain): 375 mg/kg
COc1cccc(N=C(NC2CCCCC2)c2cccc(C)c2)c1.O=C(O)C(=O)O [Compound 28, N-cyclohexyl, N'-m-methoxyphenyl-m-toluamidine oxalate] | 5.15 | 743 |  | 
Cc1cccc(NC(=NC2CCCCC2)c2cccc(C)c2)c1 [Compound 9, hydrochloric acid salt of N-cyclohexyl, N'-m-tolyl-m-toluamidine] |  | 445 | 1.20 | 
CCc1ccccc1N=C(NC1CCCCC1)c1cccc(C)c1.Cl [Compound 27, N-cyclohexyl, N'-o-ethylphenyl-m-toluamidine hydrochloride] | 5.15 | > 1000 |  | 
COc1ccc2c3c1O[C@H]1[C@@H](O)C=C[C@H]4[C@@H](C2)N(C)CC[C@@]341 [Compound 17, codeine phosphate, reference compound] | 2.2 |  | 1.00 | LD50 (male mice of ddy-strain): 190 mg/kg; habituation (persons): appreciable habituation
